Measurements published in patent US10081629B2, “Amide derivatives and pharmaceutically acceptable salts thereof, preparation method thereof and medicinal application thereof” (Shanghai Hengrui Pharmaceutical Co., Ltd., priority 2014, dated 2018).

Experiments:
[1] = Pharmacokinetics assay in rats; type: in vivo; details: both sexes, Sprague-Dawley, rat, plasma, po, SD rats, intragastric, 5 mg/kg; for Vd/F: read-out: Apparent Distribution Volume Vz/F; for AUC: read-out: Area Under Curve AUC; for CL/F: read-out: Clearance CLz/F; for half-life: read-out: Half-Life T½ (converted); for MRT: read-out: Mean Residence Time MRT; for Cmax: read-out: Plasma Conc. Cmax
Procedure: Rats were used as test animals. The drug concentration in plasma at different time points was determined by LC/MS/MS after administration of the compounds of Example 8, Example 11, Example 14, Example 17, Example 20, Example 27, Example 33, Example 35, Example 36, Example 37 and Example 48 to rats. The pharmacokinetic behavior of the present compounds was studied and evaluated in rats.
Forty four (44) healthy adult Sprague-Dawley (SD) rats, half male and half female, which were purchased from SINO-BRITSH SIPPR/BK LAB. ANIMAL LTD., CO, with Certificate No.: SCXK (Shanghai) 2008-0016, were divided into 11 groups, with 4 rats in each group.
The appropriate amount of test compounds was weighed, and mixed with 25 μL Tween 80 and Labrasol to prepare a 0.6 mg/mL suspension by ultrasonication.
After an overnight fast, 44 SD rats, half male and half female, were divided into 11 groups, and administered intragastrically at a dose of 5.0 mg/kg and an administration volume of 10 mL/kg.
Blood (0.1 mL) was sampled from the orbital sinus before administration and 0.5 h, 1.0 h, 2.0 h, 4.0 h, 6.0 h, 8.0 h, 11.0 h, and 24.0 h after administration. The samples were stored in EDTA anticoagulation tubes, and centrifuged for 5 minutes at 3,500 rpm to separate the blood plasma. The plasma samples were stored at −20° C. The rats were fed 2 hours after administration.
The plasma concentration of the test compounds in rat after intragastric administration was determined by LC-MS/MS. The linearity of the method is 5.00-2000 ng/mL and 1.00-2000 ng/ml, and the minimum of quantification is 5.00 ng/mL and 1.00 ng/mL.
Plasma samples were analyzed after pretreatment by protein precipitation.

[2] = biological target: human mPGES1 (Homo sapiens (Human), UniProt O14684); experiment: Inhibition activity for human mPGES1 (enzyme assay, PGE2 HTRF); type: biochemical; details: membrane protein from HEK-293 F transfected with human mPGES1
Procedure: The method described here is used for determining the inhibition activity of the present compounds for human mPGES1.
• 1. PGE2 Assay kit (Cisbio, #62P2APEB) • 2. Prostaglandin H2 (Sigma, #P7867-1MG) • 3. FlexStation3 microplate reader. II. Experimental Procedure • 1. Obtaining the membrane proteins of mPGES1 enzyme
The cell density of HEK-293 F was grown to 6×10^5 per milliliter and was transferred with the plasmid containing human mPGES1 gene by transfection reagent PEI the next day. The cells were continuously cultured for 72 hours at 37° C. with shaking. After centrifuging at 1100 g for 5 minutes, the cells were harvested. After ultrasonication in an ice bath and centrifugation at 5000 g for 10 minutes, the supernatant was obtained. The supernatant was centrifuged at 100000 g for 1 hour to obtain a precipitate. The precipitate was resuspended with storage buffer containing 10% glycerinum, subpackaged and frozen rapidly under liquid nitrogen, and stored at −80° C. • 2. mPGES1 enzyme assay
mPGES1 was diluted with assay buffer and added into plate at 49 μL/well supplemented with 1 μL of compound (the final concentration of each compound at seven gradient concentrations was 10000 nM, 1000 nM, 100 nM, 10 nM, 1 nM, 0.1 nM and 0.01 nM). […] Then, each well was added with 53.8 μL of 6 mg/mL SnCl2 to quench the reaction. The sample was diluted with dilute buffer at 1:400. 10 μl of diluted sample, 5 μL PGE2-d2 and 5 μL anti-PGE2 Cryptate were added to a black 384-well plate, and incubated at 4° C. overnight. HTRF was determined using Flexstation, and the IC50 of the compounds was obtained by data processing software.
The inhibition activity of the present compounds on mPGES1 was tested by the assay described above.

[3] = system: secretion of PGE2 by A549 cells stimulated with IL-1β; experiment: Inhibition of the secretion of PGE2 by A549 cells stimulated with IL-1β; type: cell-based; details: Homo sapiens, IL-1β 0.2 ng/mL
Source text: The method described here was used for determining the inhibition activity of the present compounds on the secretion of PGE2 by A549 cells stimulated with IL-1β.
• 1. PGE2 Assay kit (Cisbio, #62P2APEB) • 2. IL-1β (Peprotech, # AF-200-01B) • 3. Cell line: A549 (ATCC: CCL-185) • 4. FlexStation3 microplate reader. II. Experimental Procedure
On the first day, A549 cells were inoculated in a 96-well plate at 40000/well. On the second day, the culture medium in the 96-well plate was removed and then added with 90 μL of compound diluted with culture medium (the concentration of each compound at seven gradient concentrations was 11111 nM, […], 1.11 nM, 0.11 nM and 0.011 nM). The cells were incubated for 30 minutes at 37° C. in an incubator, and then added with IL-1β to a final concentration of 0.2 ng/mL. Then, the cells were incubated for another 24 hours at 37° C. On the third day, 10 μl of supernatant, 5 μL of PGE2-d2 and 5 μL of anti-PGE2 Cryptate were added into a black 384-well plate, and then incubated at 4° C. overnight. HTRF was determined using Flexstation, and the IC50 of the compounds was obtained by data processing software.
The inhibition activity of the present compounds on the secretion of PGE2 by A549 cells stimulated with IL-1β was determined by the assay described above.

human mPGES1, sequence (O14684 whole entry): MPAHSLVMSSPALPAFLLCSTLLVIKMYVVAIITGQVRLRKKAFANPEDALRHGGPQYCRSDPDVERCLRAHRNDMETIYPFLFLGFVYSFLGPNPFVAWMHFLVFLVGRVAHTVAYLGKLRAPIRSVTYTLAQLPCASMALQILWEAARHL

Structure (SMILES) | Vd/F [1] [L/kg] | AUC [1] [µg·h/mL] | CL/F [1] [L/h/kg] | half-life [1] [h] | MRT [1] [h] | Cmax [1] [µg/mL] | IC50 [2] [nM] | IC50 ([3]; A549, 24 h) [nM] | IC50 ([3]; A549, 24 hours) [nM]
Cn1c(-c2ccc(Cl)cc2)cc2cc(NC(=O)c3cc(CNC(=O)C(C)(C)F)cnc3C(F)F)ccc21 [Example 14, N-(2-(4-Chlorophenyl)-1-methyl-1H-indol-5-yl)-2-(difluoromethyl)-5-(((2-fluoro-2-methyl-propanoyl)amino)methyl)nicotinamide] | 17.9 ± 3.12 | 1.79 ± 0.984 | 3.4 ± 1.52 | 4.15 ± 1.59 | 9.25 ± 2.24 | 0.15 ± 0.056 | 4.59 | 20.5 | –
CCn1c(-c2cccc(Cl)c2)cc2nc(NC(=O)c3cc(CNC(=O)C(C)(C)F)cnc3C(F)F)ccc21 [Example 37, N-(2-(3-Chlorophenyl)-1-ethyl-1H-pyrrolo[3,2-b]pyridin-5-yl)-2-(difluoromethyl)-5-(((2-fluoro-2-methyl-propanoyl)amino)methyl)nicotinamide] | 1.39 ± 0.17 | 23.2 ± 14.2 | 0.326 ± 0.259 | 4.49 ± 2.93 | 7.34 ± 3.76 | 2.35 ± 0.676 | 6.46 | – | 22.4
COCCn1c(-c2ccc(C(F)(F)F)cc2)cc2cc(NC(=O)c3cc(CNC(=O)C(C)(C)F)cnc3C(F)F)ccc21 [Example 27, 2-(Difluoromethyl)-5-(((2-fluoro-2-methyl-propanoyl)amino)methyl)-N-(1-(2-methoxyethyl)-2-(4-(trifluoromethyl)phenyl)-1H-indol-5-yl)nicotinamide] | 15.1 ± 1.53 | 1.18 ± 0.247 | 4.4 ± 0.918 | 2.46 ± 0.59 | 5.32 ± 1.03 | 0.193 ± 0.023 | 4.77 | – | 13.4
CC(C)(F)C(=O)NCc1cnc(C(F)F)c(C(=O)Nc2ccc3oc(-c4cccc(C(F)(F)F)c4)cc3c2)c1 [Example 48, 2-(Difluoromethyl)-5-(((2-fluoro-2-methyl-propanoyl)amino)methyl)-N-(2-(3-(trifluoromethyl)phenyl)benzofuran-5-yl)nicotinamide] | 7.53 ± 1.69 | 2.26 ± 0.767 | 2.46 ± 1 | 2.3 ± 0.76 | 6.3 ± 1.62 | 0.263 ± 0.066 | 3.58 | – | 14.1
CCn1c(-c2cccc(Cl)c2)cc2cc(NC(=O)c3cc(CNC(=O)C(C)(C)F)cnc3C(F)F)ccc21 [Example 20, N-(2-(3-Chlorophenyl)-1-ethyl-1H-indol-5-yl)-2-(difluoromethyl)-5-(((2-fluoro-2-methyl-propanoyl)amino)methyl)nicotinamide] | 5.41 ± 1.81 | 8.24 ± 2.29 | 0.642 ± 0.162 | 5.94 ± 2 | 11.1 ± 3 | 0.681 ± 0.195 | 3.54 | – | 12.6
Cn1c(-c2ccc(F)cc2)cc2cc(NC(=O)c3cc(CNC(=O)C(C)(C)C)ccc3Cl)ccc21 [Example 11, 2-chloro-N-(2-(4-fluorophenyl)-1-methyl-1H-indol-5-yl)-5-((2,2-dimethylpropanoylamino)methyl)benzamide] | 5.83 ± 1.14 | 7.23 ± 5.32 | 1.15 ± 0.846 | 5.27 ± 3.25 | 10.4 ± 5.1 | 0.572 ± 0.167 | 5.14 | – | 16.3
Cn1c(-c2cccc(Cl)c2)cc2cc(NC(=O)c3cc(CNC(=O)C(C)(C)F)cnc3C(F)F)ncc21 [Example 36, N-(2-(3-Chlorophenyl)-1-methyl-1H-pyrrolo[2,3-c]pyridin-5-yl)-2-(difluoromethyl)-5-(((2-fluoro-2-methyl-propanoyl)amino)methyl)nicotinamide] | 7.22 ± 1.34 | 3.54 ± 1.97 | 1.82 ± 1.02 | 3.69 ± 2.4 | 6.56 ± 3.01 | 0.459 ± 0.157 | 4.19 | – | 13.2
CCn1c(-c2ccc(F)cc2)cc2cc(NC(=O)c3cc(CNC(=O)C(C)(C)C)ccc3Cl)ccc21 [Example 8, 2-Chloro-N-(1-ethyl-2-(4-fluorophenyl)-1H-indol-5-yl)5-((2,2-dimethylpropanoylamino)methyl)-benzamide] | 10.5 ± 4.66 | 2.9 ± 1.34 | 1.96 ± 0.786 | 4.69 ± 3.74 | 8.21 ± 4.88 | 0.346 ± 0.155 | 3.88 | 19.1 | –
Cn1c(-c2cccc(Cl)c2)cc2nc(NC(=O)c3cc(CNC(=O)C(C)(C)F)cnc3C(F)F)ccc21 [Example 35, N-(2-(3-Chlorophenyl)-1-methyl-1H-pyrrolo[3,2-b]pyridin-5-yl)-2-(difluoromethyl)-5-(((2-fluoro-2-methyl-propanoyl)amino)methyl)nicotinamide] | 1.85 ± 0.576 | 37.4 ± 36.7 | 0.281 ± 0.223 | 11.3 ± 14.5 | 18.8 ± 20.6 | 1.51 ± 0.517 | 4.07 | – | 31.6
